These results are taken from ChEMBL document CHEMBL1155373, “Triterpene compounds isolated from Acer mandshuricum and their anti-inflammatory activity” (Bioorg Med Chem Lett, 2010).

One assay relates to SK-OV-3. Nature of the assay: Growth inhibition of human SKOV3 cells by MTT assay. The assay is classed as functional.
Another assay relates to HT-29. Nature of the assay: Growth inhibition of human HT-29 cells by MTT assay. The assay is classed as functional.
A further assay relates to A549. Nature of the assay: Growth inhibition of human A549 cells by MTT assay. It counts as functional. On the technique in general: Tetrazolium dyes change colour on reduction, which living cells bring about.
The test system of the next assay is RAW264.7. Description: Antiinflammatory activity in mouse RAW264.7 cells assessed as inhibition of LPS-stimulated TNFalpha production at 100 nM pretreated 1 hr before LPS challenge measured after 24 hrs by sandwich ELISA relative to control. The assay is classed as functional. (In general: In an ELISA, binding on a coated surface is turned into a signal by an enzyme label.)

In a further assay the test system is HL-60. Description: Growth inhibition of human HL60 cells by MTT assay. It counts as functional.
The next assay relates to A2780. Description: Cytotoxicity against human A2780 cells. It counts as functional, cell-based.

In general, GI50 refers to the concentration at which growth is held to half of that of the control. Lower therefore signals more potent growth inhibition. One may read the inhibition as the percentage by which the read-out fell short of the control. Regarding `C[C@H]1C(=O)CC[C@@H]2[C@]1(C)CC[C@H]1[C@@]2(C)CC[C@@]2(C)[C@@H]3CC(C)(C)CC[C@]3(C)CC[C@]12C` [FRIEDELINE], the GI50 in the assay with SK-OV-3 was 12.7 µM; in the assay on HT-29 it was 13.5 µM; with A549, 11.1 µM; in the assay with HL-60 it was 12.2 µM. Also, the inhibition at 0.1 µM with RAW264.7 was found to be 23.5%.
Consider `CC(=O)O[C@H]1CC[C@@H]2C(=CC[C@H]3[C@@]2(C)CC[C@@]2(C)[C@@H]4CC(C)(C)CC[C@]4(C)CC[C@]32C)C1(C)C` [GLUTINOL ACETATE], for which the GI50 was 12.1 µM in the assay with SK-OV-3, 16.3 µM with HT-29, 17.9 µM with A549 and 16.2 µM with HL-60. Moreover, the inhibition at 0.1 µM with RAW264.7 is 25.4%.
Broadly, the IC50 is the midpoint of a concentration-inhibition curve. On to `CC(=O)O[C@H]1CC[C@]2(C)[C@H]3CC=C4[C@@H]5CC(C)(C)CC[C@]5(C)CC[C@@]4(C)[C@]3(C)CC[C@H]2C1(C)C` [beta-AMYRIN ACETATE], for which the GI50 amounted to 14.6 µM in the assay with SK-OV-3, 12.5 µM in the assay on HT-29, 11.4 µM in the assay with A549 and 14.6 µM in the assay on HL-60. In the assay on A2780, this compound showed an IC50 of 12.5 µg/mL. In addition, the inhibition at 0.1 µM with RAW264.7 worked out at 38.4%.
As for `CC(=O)O[C@H]1CC[C@@]2(C)[C@@]3(OC[C@@H](OO3)[C@]3(C)[C@@]2(C)CC[C@@]2(C)[C@@H]4CC(C)(C)CC[C@]4(C)CC[C@]32C)C1(C)C` [ACERANOL ACETATE], the GI50 with SK-OV-3 was found to be 12.8 µM; with HT-29, 14.6 µM; in the assay with A549 it was 11.4 µM; with HL-60 it was 13.7 µM. Moreover, the inhibition at 0.1 µM in the assay on RAW264.7 came out at 21%.
Consider `CC1(C)CC[C@]2(C)CC[C@]3(C)[C@H]4CC=C5[C@@H](CC[C@H](O)C5(C)C)[C@]4(C)CC[C@@]3(C)[C@@H]2C1` [GLUTINOL], for which the GI50 with SK-OV-3 is 12.6 µM; in the assay on HT-29, 14.1 µM; in the assay with A549 it was 11.6 µM; in the assay with HL-60 it was 16 µM. Further, the inhibition at 0.1 µM with RAW264.7 amounted to 16.9%.
`CC[C@H](CC[C@@H](C)[C@H]1CC[C@H]2[C@@H]3CC=C4C[C@@H](O[C@@H]5O[C@H](CO)[C@@H](O)[C@H](O)[C@H]5O)CC[C@]4(C)[C@H]3CC[C@]12C)C(C)C` [SITOGLUSIDE]: the GI50 in the assay with SK-OV-3 was found to be 29.8 µM; with HT-29, 46.8 µM; in the assay on A549, 35.5 µM; in the assay with HL-60 it was 50.8 µM. The inhibition at 0.1 µM in the assay with RAW264.7 turned out to be 29.3%.
Take `O=C1c2c(O)ccc(O)c2C(=O)c2c(NCCNCCO)ccc(NCCNCCO)c21` [MITOXANTRONE]: the GI50 was determined as 11 µM with SK-OV-3, 8.9 µM with HT-29, 8.3 µM in the assay with A549 and 7.8 µM in the assay on HL-60.
